Converted amounts (≈) assume the structure as drawn.
Experiments:
in vitro = details: human, plasma
physchem [1] = details: octan-1-ol/water, pH 7.4, LogD7.4
physchem [2] = details: pH 7.4 buffer

Row | Compound | fraction unbound at 5 h (in vitro; PPB) | logD (physchem [1]) | solubility thermodynamic (physchem [2]) [µM] | further results
1 | COc1ccc2ncc(=O)n(CCN3CC[C@@H](NCc4ccc5c(n4)NC(=O)CO5)[C@H](OC)C3)c2c1 | 0.179 | – | – | –
2 | Cc1cccc(Oc2cc(CN3CCC[C@H](n4cc(C)c(=O)[nH]c4=O)C3)ccc2C(=O)O)c1 | 0.0383 | – | – | –
3 | CC(C)COc1ccc(-c2cc(=O)[nH]c(N)n2)cc1C#N | 0.0409 | – | – | –
4 | CC(C)Oc1cc2ncc(C(N)=O)c(Nc3cccc(Cl)c3Cl)c2cc1N1CCN(C)CC1 | 0.0139 | – | – | –
5 | CC(=O)Nc1ccc2c(c1)N(c1cc(NC3CC3)n3ncc(C#N)c3n1)CCO2 | 0.0752 | – | – | –
6 | CN[C@@H](C)C(=O)N[C@H](C(=O)N[C@H]1CCCN(CCc2ccc(Br)cc2)C1)C(C)(C)C | 0.0229 | – | – | –
7 | CCNC(=O)c1cc2c(-n3nc(C(F)(F)F)cc3C)c(-c3cncc(C(=O)O)c3)cnc2[nH]1 | 0.454 | – | – | –
8 | COc1ccc(OC)c(C(O)CN)c1 (stereo not given) [DESGLYMIDODRINE] | – | – | – | fraction unbound at 5 h (in vitro): 0.78
9 | CN1CCN(C2=Nc3ccccc3Nc3ccc(OS(=O)(=O)C(F)(F)F)cc32)CC1 | 0.0358 | – | – | –
10 | COc1cc(OC)c(S(=O)(=O)NCc2ccccc2N2CCC(C(=O)O)CC2)cc1NC(=O)CCC(=O)O | 0.194 | – | – | –
11 | CCOc1cc2ncc(C(N)=O)c(Nc3cccc(Cl)c3Cl)c2cc1N1CCN(CCOC)CC1 | 0.0171 | – | – | –
12 | O=C(O)COn1c(-c2ccccc2)nc2ccc([N+](=O)[O-])cc21 | 0.0139 | – | – | –
13 | COc1cc(OC)c(S(=O)(=O)NCc2ccccc2N2CCC(COC(=O)CCC(=O)O)CC2)cc1NC(=O)CCC(=O)O | 0.151 | – | – | –
14 | CCOc1cc2ncc(C(N)=O)c(Nc3ccc(F)c(Cl)c3)c2cc1N1CCN(C)CC1 | 0.0343 | – | – | –
15 | CCOc1cc2ncc(C(N)=O)c(Nc3cccc(Cl)c3Cl)c2cc1N1CCN(CCO)CC1 | 0.0477 | – | – | –
16 | Cc1cc(-c2cc(=O)[nH]c(NCc3cccc4ccccc34)n2)ccn1 | 0.0025 | – | – | –
17 | O=C(O)c1cn(Cc2ccccc2)c2cc(N3CCNCC3)c(F)cc2c1=O | 0.299 | – | – | –
18 | CCn1cc(CNC(=O)c2cc(-c3ccc(C)cc3)nc3ccc(Br)cc23)c(C)n1 | 0.0011 | – | – | –
19 | CC(C)(C)Oc1ccc(C(=O)Nc2ccc3sc(CO)nc3c2)cc1 | 0.051 | – | – | –
20 | CCNC(=O)c1cc2c(-n3ccc(C(F)(F)F)n3)c(-c3cncc(C(N)=O)c3)cnc2[nH]1 | 0.36 | – | – | –
21 | CCOc1cc2ncc(C(N)=O)c(Nc3ccc(F)cc3F)c2cc1N1CCN(CC)CC1 | 0.0457 | – | – | –

Row | Compound | fraction unbound at 5 h (in vitro; PPB) | logD (physchem [1]) | solubility thermodynamic (physchem [2]) [µM] | further results
22 | O=C(Nc1ccc(Cl)c(C(=O)Nc2cncs2)c1)c1cccc(Cl)c1 | 0.002 | – | – | –
23 | CN1CCN(c2cc3c(Nc4cccc(Cl)c4Cl)c(C(N)=O)cnc3cc2F)CC1 | 0.0437 | – | – | –
24 | CCOc1cc2ncc(C(N)=O)c(Nc3cccc(Cl)c3Cl)c2cc1N1CCN(CC)CC1 | 0.0183 | – | – | –
25 | CCOc1cc2nnc(C(N)=O)c(Nc3ccc(F)cc3F)c2cc1N1CCN(C)CC1 | 0.0383 | – | – | –
26 | CC(=O)Nc1ccc2c(c1)N(c1cc(NC3CC3)n3ncc(C#N)c3n1)CCC2 | 0.0262 | – | – | –
27 | CCOC(=O)[C@H](CCc1ccccc1)N[C@H]1CCc2ccccc2N(CC(=O)O)C1=O [BENAZEPRIL] | 0.0409 | – | – | –
28 | COc1cc2ncnc(Nc3cccc(Cl)c3F)c2cc1CN(C)[C@H](C)C(N)=O | – | 3.44 | 41.7 (≈ 17.4 µg/mL) | –
29 | CN1CC(n2nccc2-c2cc(Cl)ccc2Oc2cc(F)c(S(=O)(=O)Nc3ncns3)cc2F)C1 | – | 1 | 47.9 (≈ 25.8 µg/mL) | –
30 | Cn1sc(NCc2ccccc2)nc1=O | – | 1.2 | 1510 (≈ 335 µg/mL) | –
31 | COc1ccc2c(Oc3ccc(CC(=O)Nc4n[nH]c(C)c4C)c(OC)c3)ccnc2c1 | – | 3.78 | 8.3 (≈ 3.59 µg/mL) | –
32 | COc1cc2ncc(C(N)=O)c(Nc3ccccc3F)c2cc1OC | – | 2.81 | 21.9 (≈ 7.48 µg/mL) | –
33 | CC(=O)c1ccc2[nH]c(-c3cccnc3)cc(=O)c2c1 | – | 1.41 | 126 (≈ 33.3 µg/mL) | –
34 | Clc1cccc(Cl)c1-c1nnc2cccc(Cl)n12 | – | 2.66 | 115 (≈ 34.3 µg/mL) | –
35 | CN1CCC(Oc2cccc3ncnc(Nc4ccc(OCc5cnccn5)c(Cl)c4)c23)CC1 | – | 3.21 | 12.3 (≈ 5.87 µg/mL) | –
36 | CCc1cccc2c(C#N)cn(CC(=O)NCCOC)c12 | – | 1.95 | 37.2 (≈ 10.6 µg/mL) | –
37 | CC(C)C[C@H](N[C@@H](c1ccc(-c2ccc(S(C)(=O)=O)cc2)cc1)C(F)(F)F)C(=O)NCC#N | – | 3.24 | 4 (≈ 1.93 µg/mL) | –
38 | Oc1ccc(-c2nc3ccccc3s2)cc1 | – | 4.1 | 7.9 (≈ 1.8 µg/mL) | –
39 | CCN(CC)C(=O)Cc1csc(NS(=O)(=O)c2cccc(Cl)c2C)n1 | – | 1.67 | 40.7 (≈ 16.4 µg/mL) | –
40 | CCOC(=O)N1CCN(C(=O)[C@H](Cc2cccc(C(=N)N)c2)NS(=O)(=O)c2c(C(C)C)cc(C(C)C)cc2C(C)C)CC1 | – | 1.67 | 692 (≈ 425 µg/mL) | –
41 | NC1(Cc2ccc(Cl)cc2)CCN(c2ncnc3[nH]ccc23)CC1 | – | 2.72 | 339 (≈ 116 µg/mL) | –

From ChEMBL document CHEMBL3301361, “Experimental in vitro DMPK and physicochemical data on a set of publicly disclosed compounds”
